Key:
SIRT3 = SIRT3 (Homo sapiens, UniProt Q9NTG7); assay: Deacetylation activity selectivity, SIRT3; assay type: biochemical
Procedure: (§1) Fluor-De-Lys (FDL) assays were used for the examination of the deacetylation activities of sirtuins as described previously. For the detection of SIRT6 activity, the 50-μL reaction mixture contained 5 μM SIRT6, 2.5 mM NAD^+ (β-Nicotinamide adenine dinucleotide hydrate, Sigma, N1636), 75 μM RHKK-Ac-AMC (GL Biochem, Shanghai), compounds/DMSO, and assay buffer. The reactions were incubated at 37 °C for 2 h, added 50 μL stop solution (40 mM nicotinamide, 6 mg/mL trypsin) at 25 °C for 30 min. Fluorescence intensity was measured at an excitation wavelength of 360 nm and an emission wavelength of 460 nm. IC50 values were calculated in GraphPad Prism version 8.00.
(§2) Based on the above results, 8a was further investigated in this study. […] To further evaluate the selectivity of 8a for SIRT6, we examined the effect of 8a on the deacetylation activity of other HDAC family members, including HDAC1-HDAC11, SIRT1-SIRT3 and SIRT5. […] Furthermore, to confirm binding of 8a to SIRT6 in cells, we carried out the cellular thermal shift assay (CETSA). The CETSA approach builds on the thermal shift assay concept where ligand binding to its target protein enhances the target protein stability. We observed that the thermal stability of SIRT6 increased after 8a treatment (Figs. 2c, d).

SIRT5 = SIRT5 (Homo sapiens, UniProt Q9NXA8); assay: Deacetylation activity selectivity, SIRT5; assay type: biochemical
SIRT5, sequence (Q9NXA8 37-310, species assumed): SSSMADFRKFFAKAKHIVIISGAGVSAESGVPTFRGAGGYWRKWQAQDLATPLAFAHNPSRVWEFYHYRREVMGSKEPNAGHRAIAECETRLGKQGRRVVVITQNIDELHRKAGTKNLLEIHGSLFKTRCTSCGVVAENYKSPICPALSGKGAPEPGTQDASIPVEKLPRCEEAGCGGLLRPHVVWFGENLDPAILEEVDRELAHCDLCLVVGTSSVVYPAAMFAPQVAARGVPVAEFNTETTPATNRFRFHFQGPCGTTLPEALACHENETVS
Procedure: as §1, §2

HDAC1 = HDAC1 (Homo sapiens, UniProt Q13547); assay: Deacetylation activity selectivity, HDAC1; assay type: biochemical
HDAC1, sequence (Q13547 whole entry, species assumed): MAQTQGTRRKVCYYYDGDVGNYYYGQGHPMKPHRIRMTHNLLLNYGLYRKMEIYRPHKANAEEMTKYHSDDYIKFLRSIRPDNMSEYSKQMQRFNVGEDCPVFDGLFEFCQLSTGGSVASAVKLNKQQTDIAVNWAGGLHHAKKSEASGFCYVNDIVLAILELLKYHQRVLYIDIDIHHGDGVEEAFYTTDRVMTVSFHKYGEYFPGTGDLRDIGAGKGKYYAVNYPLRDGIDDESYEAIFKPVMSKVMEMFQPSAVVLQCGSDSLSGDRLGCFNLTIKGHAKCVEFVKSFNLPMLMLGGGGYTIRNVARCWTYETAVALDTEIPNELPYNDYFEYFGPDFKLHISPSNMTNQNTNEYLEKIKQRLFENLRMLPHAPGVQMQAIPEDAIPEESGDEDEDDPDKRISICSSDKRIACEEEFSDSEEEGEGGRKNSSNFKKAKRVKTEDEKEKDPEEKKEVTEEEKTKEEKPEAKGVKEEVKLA
Source text: as §2

HDAC5 = HDAC5 (Homo sapiens, UniProt Q9UQL6); assay: Deacetylation activity selectivity, HDAC5; assay type: biochemical
HDAC5, sequence (Q9UQL6 whole entry, species assumed): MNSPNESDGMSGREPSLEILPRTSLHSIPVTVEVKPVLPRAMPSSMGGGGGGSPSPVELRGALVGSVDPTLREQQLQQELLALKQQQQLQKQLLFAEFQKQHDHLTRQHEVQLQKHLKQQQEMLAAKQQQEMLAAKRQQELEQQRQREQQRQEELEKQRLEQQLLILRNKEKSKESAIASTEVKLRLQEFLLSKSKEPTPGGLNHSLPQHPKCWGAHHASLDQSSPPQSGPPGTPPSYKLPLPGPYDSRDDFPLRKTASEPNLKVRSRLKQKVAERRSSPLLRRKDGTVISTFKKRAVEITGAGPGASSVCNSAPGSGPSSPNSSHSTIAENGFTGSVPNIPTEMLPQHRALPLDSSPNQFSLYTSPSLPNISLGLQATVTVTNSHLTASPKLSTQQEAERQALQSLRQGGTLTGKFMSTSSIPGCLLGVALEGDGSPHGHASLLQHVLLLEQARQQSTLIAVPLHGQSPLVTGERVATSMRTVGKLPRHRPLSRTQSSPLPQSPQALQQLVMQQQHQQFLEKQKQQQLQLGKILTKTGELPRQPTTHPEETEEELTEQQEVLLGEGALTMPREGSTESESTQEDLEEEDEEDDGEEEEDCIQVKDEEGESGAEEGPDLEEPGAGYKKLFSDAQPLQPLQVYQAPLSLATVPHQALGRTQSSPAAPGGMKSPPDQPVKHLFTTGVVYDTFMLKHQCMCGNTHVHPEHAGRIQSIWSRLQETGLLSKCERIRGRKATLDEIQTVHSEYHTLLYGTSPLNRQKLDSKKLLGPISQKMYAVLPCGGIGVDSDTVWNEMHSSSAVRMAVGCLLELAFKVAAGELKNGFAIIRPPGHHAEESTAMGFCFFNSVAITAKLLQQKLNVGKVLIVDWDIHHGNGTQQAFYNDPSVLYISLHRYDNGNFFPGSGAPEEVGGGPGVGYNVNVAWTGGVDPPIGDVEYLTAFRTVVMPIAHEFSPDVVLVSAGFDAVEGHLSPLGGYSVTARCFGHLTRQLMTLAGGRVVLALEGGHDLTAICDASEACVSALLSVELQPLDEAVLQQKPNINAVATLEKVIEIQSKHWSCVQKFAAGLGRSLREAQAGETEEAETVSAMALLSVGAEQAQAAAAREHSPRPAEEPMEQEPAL
Source text: as §2

β-TC-6 cells = assay: Cell glucose uptake assay, β-TC-6; assay type: cell-based; conditions: β-TC-6, 8a (3.125, 6.25, 12.5 μM) + insulin (100 nM) vs insulin only, 30 min
Procedure: The NIT-1 and β-TC-6 cells were added to the wells of 12-well plates and incubated overnight. Then the culture medium without FBS was incubated for 6 h, and different concentrations of 8a (3.125, 6.25, 12.5 μM), insulin (100 nM) or their combination were added for 30 min. Glucose uptake was determined using a Glucose Uptake Assay Kit (Jiancheng, Nanjing).

[1] = test system: islet α cells and β cells; assay: Immunofluorescence of pancreatic tissues (islet cell composition); assay type: in vivo; conditions: mice, 8a 20 mg/kg, 2 weeks
Procedure: Male C57BL/6 mice (18 ± 2 g, 5 weeks old) were randomly divided into four groups with six mice per group. Acute drug toxicity test was performed. Mice were fasted for 6 h, and basal blood glucose and serum insulin levels were measured by using Accu-Check Performa (Roche, Swiss) glucose meter and Mouse Insulin ELISA kit (Solarbio). Compound 8a (10, 20, 30 mg/kg) was intraperitoneally injected for 10 min, followed by glucose (2 g/kg) intraperitoneally injected. The blood glucose concentration was measured at 30 and 60 min after glucose injection, and the serum insulin content of mice was measured at 60 min. Compound 8a was treated every other day for 2 weeks and tested for chronic drug toxicity. According to the above method, the serum glucose and insulin content of mice were measured.
Pancreatic tissue sections were incubated with primary antibodies overnight at 4 °C. The primary antibodies were as follows: anti-Glucagon (Cell Signaling Technology, Cat#2760), anti-insulin (Cell Signaling Technology, Cat#3014). The sections were stained with secondary antibodies (Alexa Fluor 488-conjugated anti-rabbit IgG, Abcam, Cat#ab150077) for 2 h at 4 °C in dark. After washing with PBS, the sections were stained with DAPI and observed by confocal microscopy (Leica TCS SP8 STED 3X).

SIRT6 [2] = target: T1, SIRT6 (Homo sapiens, UniProt Q8N6T7); assay: Cellular thermal shift assay (CETSA) in Hela cells; assay type: cell-based; design: endogenous in cells; host or cells: HeLa; conditions: 8a 25 μM, 6 h
T1 sequence (Q8N6T7 whole entry): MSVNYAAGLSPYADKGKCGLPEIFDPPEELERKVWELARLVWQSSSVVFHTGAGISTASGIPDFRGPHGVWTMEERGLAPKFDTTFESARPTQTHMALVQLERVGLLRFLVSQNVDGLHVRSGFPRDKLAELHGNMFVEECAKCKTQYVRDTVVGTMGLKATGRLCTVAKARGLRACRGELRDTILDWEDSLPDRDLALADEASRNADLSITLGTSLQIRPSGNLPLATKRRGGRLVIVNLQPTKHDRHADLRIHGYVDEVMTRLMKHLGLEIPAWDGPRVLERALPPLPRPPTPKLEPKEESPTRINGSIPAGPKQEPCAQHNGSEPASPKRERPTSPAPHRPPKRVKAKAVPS
Procedure: The CETSA [26] approach builds on the thermal shift assay concept where ligand binding to its target protein affects protein stability at high temperatures. Hela cells were plated in 100 mm plates. After 12 h attachment, Hela cells were incubated with 8a (25 μM) for 6 h, and then the cells were digested with trypsin and collected. The collected cells were subsequently aliquoted into […], and incubated each part at different temperatures (40, 41, 42, 43, 44, 45, 46, 47, 48, 49 and 50 °C) for 3 min. The heated cells were then snap frozen in liquid nitrogen three times to lyse. After that, the lysed cells were then centrifuged at 12,000 rpm for 20 min. Then the level of SIRT6 was detected by western blot.

SIRT6 [3] = target: T1, SIRT6; assay: Fluor-De-Lys (FDL) SIRT6 deacetylation assay; assay type: biochemical; design: The human full-length SIRT6 gene was inserted into the prokaryotic expression vector (pET-28a (+)); inferred from the pET-28a(+) vector, Ni-NTA purification and Ni-NTA biosensor loading); made in house; host or cells: Escherichia coli BL21 (DE3)
Procedure: The human full-length SIRT6 gene was inserted into the prokaryotic expression vector (pET-28a (+)). The verified recombinant plasmid was transformed into Escherichia coli BL21 (DE3) expression strain and cultured overnight at 37 °C on LB plates supplemented with 50 μg/mL kanamycin. Single colonies were inoculated in fluid kanamycin-containing LB mediums. It was shaken at 160 rpm for 16 h at 37 °C and transferred to kanamycin-containing LB medium at a ratio of 1:100. It was shaken at 160 rpm at 37 °C until the OD600 reached 0.6. The Isopropyl-β-d-thiogalactopyranoside was added to make the final concentration of solution 0.5 mmol/L, cultured for 15 °C and 160 rpm for 24 h.
Bacterial liquid was harvested at 12,000 rpm at 4 °C for 20 min, and then re-suspended in Lysis buffer (20 mmol/L Hepes pH 7.5, 20 mmol/L imidazole, 5% Glycerol, 500 mmol/L NaCl). Cell pellets were disrupted by high-pressure crusher (JNBIO, Guangzhou China) and centrifuged (4 °C, 12000 rpm, for 20 min). Supernatant was collected and purified by FPLC with a 1 mL Ni–NTA Sepharose column (GE Healthcare, Stamford, USA). The SIRT6 protein was eluted at containing 50 mM, 100 mM, 150 mM, 200 mM, and 500 mM imidazole in elution buffer. The purified SIRT6 protein was dialyzed in dialysis buffer (50 mM Tris-HCl, 137 mM NaCl, 2.7 mM KCl, 1 mM MgCl2). The purified SIRT6 protein was analyzed by SDS-PAGE.
as §1

SIRT3, sequence (Q9NTG7 whole entry, species assumed): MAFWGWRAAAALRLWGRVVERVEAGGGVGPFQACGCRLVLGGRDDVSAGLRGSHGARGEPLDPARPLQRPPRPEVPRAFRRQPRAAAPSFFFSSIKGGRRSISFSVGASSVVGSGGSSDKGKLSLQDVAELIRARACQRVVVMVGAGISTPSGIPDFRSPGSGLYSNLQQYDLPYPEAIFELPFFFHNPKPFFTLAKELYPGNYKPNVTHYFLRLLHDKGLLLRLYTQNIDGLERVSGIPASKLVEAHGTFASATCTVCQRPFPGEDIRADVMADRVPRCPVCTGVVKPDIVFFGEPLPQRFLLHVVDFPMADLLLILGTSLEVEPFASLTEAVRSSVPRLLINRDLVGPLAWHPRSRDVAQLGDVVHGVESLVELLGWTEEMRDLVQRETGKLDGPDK

- IC50 (SIRT3): > 200 µM
- IC50 (SIRT5): > 200 µM
- IC50 (HDAC1): > 200 µM
- IC50 (HDAC5): > 200 µM
- glucose uptake (β-TC-6 cells): no significant effect
- number of α cells and β cells in the islets [1]: no significant difference
- thermal stability of SIRT6 (SIRT6 [2]): increased
- IC50 (SIRT6 [3]): 7.46 ± 0.79 µM
- Inhibition rate (%) (SIRT6 [3]; fixed concentration of 25 μM, RHKK-Ac-AMC, NI = no inhibition): 75.6%
Compound: Br.CN(C)C(SCCCCCCn1cnc2c(-c3cc(Br)c(Br)[nH]3)nccc21)=[N+](C)C.[Cl-] [Compound 8a]

Reference: paper PMC10403574, “Discovery of a pyrrole-pyridinimidazole derivative as novel SIRT6 inhibitor for sensitizing pancreatic cancer to gemcitabine” (Cell Death & Disease, 2023)
